Results as given in patent publication US20030144249A1, “Use of organophosphorous compounds for producing a medicament for treating infections” (priority 2000, published 2003).

Columns and labels:
[1] = biological target: T1, DOXP reductoisomerase from Helicobacter pylori (Helicobacter pylori, UniProt P56139); test: DOXP reductoisomerase inhibition (NADPH oxidation at 365 nm); format: biochemical; conditions: recombinant enzyme; 0.3 mM NADPH, 1 mM DOXP, pH 7.5; read-out: IC50 (nM) of DOXP reductoisomerase from Helicobacter pylori
T1 construct: made in house; host or cells: Helicobacter pylori (so in the source)
T1 sequence (P56139 1-368): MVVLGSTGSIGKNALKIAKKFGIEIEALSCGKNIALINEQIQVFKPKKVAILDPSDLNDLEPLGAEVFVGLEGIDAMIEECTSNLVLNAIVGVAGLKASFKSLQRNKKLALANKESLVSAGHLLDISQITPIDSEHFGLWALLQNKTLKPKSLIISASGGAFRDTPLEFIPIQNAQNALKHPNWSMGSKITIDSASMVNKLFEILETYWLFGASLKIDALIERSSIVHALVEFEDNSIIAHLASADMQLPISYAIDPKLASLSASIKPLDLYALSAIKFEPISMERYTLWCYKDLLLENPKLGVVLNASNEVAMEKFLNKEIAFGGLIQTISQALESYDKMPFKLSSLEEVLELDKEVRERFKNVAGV
Experimental: The DOXP reductoisomerase of Helicobacter pylori was expressed as a recombinant protein in Helicobacter pylori. The activity of DOXP reductoisomerase was determined in a batch containing 100 mM tris-HCl (pH=7.5), 1 mM MnCl2, 0.3 mM NADPH and 1 mM DOXP.
The oxidation of NADPH was here measured at 365 nm in a spectrophotometer. The inhibition studies were performed by measuring the activity of DOXP reductoisomerase in the presence of compounds 1 to 8 (see page 5) at various concentrations between 0. 1 and 100 μmol l^−1.

Plasmodium falciparum = test: Antimalarial activity, in vitro culture, [3H]-hypoxanthine incorporation; format: cell-based; conditions: 72 h, asynchronous culture, 48 h + 24 h with [3H]-hypoxanthine, read-out: IC50 (nM) of malaria culture (Plasmodium falciparum)
Experimental: The antimalarial activity of substances 1 to 8 (see page 5) was determined using in vitro cultures of the causative organism of malaria, Plasmodium falciparum. 200 μl of an asynchronous Plasmodium falciparum culture with a 0.4% blood parasite content and a heamatocrit of 2% were loaded into each of the wells of a 96 well microtitre plate. A serial dilution series of the compounds was then prepared in steps of three between concentrations of 100 and 0.14 μmol l^−1. The plates were incubated at 37° C., 3% CO2 and 5% O2 over a period of 48 hours. 30 μl of medium supplemented with 27 μCi ml^−1 of [^3H]-hypoxanthine were then added to each well. After 24 hours' incubation, the parasites were harvested by filtration through glass fibre filters and the incorporated radioactivity was measured. Inhibition of parasite growth was measured as the percentage inhibition of tritium incorporation. Inhibition of parasite growth was expressed as the percentage inhibition of tritium incorporation relative to a comparison without the substance. The median inhibitory concentration (IC50) of the substance was determined by extrapolating the values.

Echinochloa = test: Herbicidal activity, water, pre-emergence; format: in vivo; conditions: Water, 1000 gram/hectare
Experimental: (§1) Herbicidal activity is determined using standard methods.
(§2) Substances 1 to 8 listed on page 5 are again investigated.

Lepidium = test: Herbicidal activity, water, pre-emergence; format: in vivo; conditions: Water, 1000 gram/hectare
Experimental: as §1, §2

Rice = test: Herbicidal activity, water, pre-emergence; format: in vivo; conditions: Oryza sativa, Water, 1000 gram/hectare
Experimental: as §1, §2

Solanum = test: Herbicidal activity, water, pre-emergence; format: in vivo; conditions: Water, 1000 gram/hectare
Experimental: as §1, §2

Abutilon theophrasti [2] = test: Herbicidal activity, soil, pre-emergence; format: in vivo; conditions: Soil, pre-emergence, 500 gram/hectare
Experimental: as §1, §2

Alopecurus myosuroides [3] = test: Herbicidal activity, soil, pre-emergence; format: in vivo; conditions: Soil, pre-emergence, 500 gram/hectare
Experimental: as §1, §2

Amaranthus retroflexus [4] = test: Herbicidal activity, soil, pre-emergence; format: in vivo; conditions: Soil, pre-emergence, 500 gram/hectare
Experimental: as §1, §2

Avena fatua [5] = test: Herbicidal activity, soil, pre-emergence; format: in vivo; conditions: Soil, pre-emergence, 500 gram/hectare
Experimental: as §1, §2

Beta vulgaris [6] = test: Herbicidal activity, soil, pre-emergence; format: in vivo; conditions: Soil, pre-emergence, 500 gram/hectare
Experimental: as §1, §2

Cyperus esculentus [7] = test: Herbicidal activity, soil, pre-emergence; format: in vivo; conditions: Soil, pre-emergence, 500 gram/hectare
Experimental: as §1, §2

Galium aperine [8] = test: Herbicidal activity, soil, pre-emergence; format: in vivo; conditions: Soil, pre-emergence, 500 gram/hectare
Experimental: as §1, §2

Setaria viridis [9] = test: Herbicidal activity, soil, pre-emergence; format: in vivo; conditions: Soil, pre-emergence, 500 gram/hectare
Experimental: as §1, §2

Sinapis arvensis [10] = test: Herbicidal activity, soil, pre-emergence; format: in vivo; conditions: Mutarda arvensis; Soil, pre-emergence; 500 gram/hectare
Experimental: as §1, §2

Xanthium strumarium [11] = test: Herbicidal activity, soil, pre-emergence; format: in vivo; conditions: Soil, pre-emergence, 500 gram/hectare
Experimental: as §1, §2

Zea mays [12] = test: Herbicidal activity, soil, pre-emergence; format: in vivo; conditions: Soil, pre-emergence, 500 gram/hectare
Experimental: as §1, §2

Abutilon theophrasti [13] = test: Herbicidal activity, soil, post-emergence; format: in vivo; conditions: Soil, post-emergence, 500 gram/hectare
Experimental: as §1, §2

Alopecurus myosuroides [14] = test: Herbicidal activity, soil, post-emergence; format: in vivo; conditions: Soil, post-emergence, 500 gram/hectare
Experimental: as §1, §2

Amaranthus retroflexus [15] = test: Herbicidal activity, soil, post-emergence; format: in vivo; conditions: Soil, post-emergence, 500 gram/hectare
Experimental: as §1, §2

Avena fatua [16] = test: Herbicidal activity, soil, post-emergence; format: in vivo; conditions: Soil, post-emergence, 500 gram/hectare
Experimental: as §1, §2

Beta vulgaris [17] = test: Herbicidal activity, soil, post-emergence; format: in vivo; conditions: Soil, post-emergence, 500 gram/hectare
Experimental: as §1, §2

Cyperus esculentus [18] = test: Herbicidal activity, soil, post-emergence; format: in vivo; conditions: Soil, post-emergence, 500 gram/hectare
Experimental: as §1, §2

Galium aperine [19] = test: Herbicidal activity, soil, post-emergence; format: in vivo; conditions: Soil, post-emergence, 500 gram/hectare
Experimental: as §1, §2

Setaria viridis [20] = test: Herbicidal activity, soil, post-emergence; format: in vivo; conditions: Soil, post-emergence, 500 gram/hectare
Experimental: as §1, §2

Sinapis arvensis [21] = test: Herbicidal activity, soil, post-emergence; format: in vivo; conditions: Mutarda arvensis; Soil, post-emergence; 500 gram/hectare
Experimental: as §1, §2

Xanthium strumarium [22] = test: Herbicidal activity, soil, post-emergence; format: in vivo; conditions: Soil, post-emergence, 500 gram/hectare
Experimental: as §1, §2

Zea mays [23] = test: Herbicidal activity, soil, post-emergence; format: in vivo; conditions: Soil, post-emergence, 500 gram/hectare
Experimental: as §1, §2

Structure (SMILES)	IC50 [1]	IC50 (Plasmodium falciparum)	pest or weed control at 1000 g/ha (Echinochloa)	pest or weed control at 1000 g/ha (Lepidium)	plant injury at 1000 g/ha (Rice)	pest or weed control at 1000 g/ha (Solanum)	pest or weed control at 500 g/ha (Abutilon theophrasti [2])	pest or weed control at 500 g/ha (Alopecurus myosuroides [3])	pest or weed control at 500 g/ha (Amaranthus retroflexus [4])	pest or weed control at 500 g/ha (Avena fatua [5])	plant injury at 500 g/ha (Beta vulgaris [6])	pest or weed control at 500 g/ha (Cyperus esculentus [7])	pest or weed control at 500 g/ha (Galium aperine [8])	pest or weed control at 500 g/ha (Setaria viridis [9])	pest or weed control at 500 g/ha (Sinapis arvensis [10])	pest or weed control at 500 g/ha (Xanthium strumarium [11])	plant injury at 500 g/ha (Zea mays [12])	pest or weed control at 500 g/ha (Abutilon theophrasti [13])	pest or weed control at 500 g/ha (Alopecurus myosuroides [14])	pest or weed control at 500 g/ha (Amaranthus retroflexus [15])	other results
CP(C)(=O)CNCN(O)C(=O)c1ccccc1 [Compound 2, N-(N-Benzoyl-N-hydroxyaminomethyl)aminomethyldimethylphosphine oxide]	60 nM	420 nM	0%	30%	30%	0%	0%	0%	0%	0%	50%	0%	0%	0%	60%	0%	0%	50%	60%	0%	pest or weed control at 500 g/ha (Avena fatua [16]): 70%; plant injury at 500 g/ha (Beta vulgaris [17]): 50%; pest or weed control at 500 g/ha (Cyperus esculentus [18]): 0%; pest or weed control at 500 g/ha (Galium aperine [19]): 60%; pest or weed control at 500 g/ha (Setaria viridis [20]): 90%; pest or weed control at 500 g/ha (Sinapis arvensis [21]): 80%; pest or weed control at 500 g/ha (Xanthium strumarium [22]): 50%; plant injury at 500 g/ha (Zea mays [23]): 70%
CCCC(=O)N(O)C(C)N(C)CC(O)P(C)(C)=O (centres unmarked) [Compound 1]	80 nM	580 nM	70%	50%	40%	0%	0%	40%	0%	0%	30%	0%	0%	0%	40%	0%	0%	40%	60%	0%	pest or weed control at 500 g/ha (Avena fatua [16]): 50%; plant injury at 500 g/ha (Beta vulgaris [17]): 50%; pest or weed control at 500 g/ha (Cyperus esculentus [18]): 0%; pest or weed control at 500 g/ha (Galium aperine [19]): 60%; pest or weed control at 500 g/ha (Setaria viridis [20]): 95%; pest or weed control at 500 g/ha (Sinapis arvensis [21]): 95%; pest or weed control at 500 g/ha (Xanthium strumarium [22]): 60%; plant injury at 500 g/ha (Zea mays [23]): 80%
